The target in assay [1] is human sodium channel Nav 1.7 (Homo sapiens (Human), UniProt Q15858). Briefly: Automated whole-cell voltage-clamp (ScreenPatch 384P), Nav 1.7 sodium current, Protocol 2. In kind it is cell-based. Particulars: read-out: Nav1.7 IC50. The procedure: (§1) Biological assays were performed on Chinese hamster ovary (CHO) cells expressing the human sodium channels Nav 1.8 and Nav 1.7 stably.
(§2) The experimental voltage-clamp protocol using the whole cell configuration was established on the automated ScreenPatch® 384P platform (SP384PE, Nanion Technologies, Livingston, NJ) and recording of the results was performed with a Nanion 384-well Patch Clamp chip (NPC) (Nanion Technologies, Livingston, NJ).
(§3) Compounds of Formula (I), were diluted in eight concentrations in the extracellular solution composed of physiological saline, buffered with HEPES (mM): NaCl, 137; KCl, 4; CaCl2, 3.8; MgCl2, 1; HEPES, 10; Glucose, 10; pH 7.4. The […], 50; CsF, 90; MgCl2, 5; EGTA, 5; HEPES, 10; pH 7.2. The duration of exposure of each compound with the cells expressing Nav 1.7 or Nav 1.8 was at least five minutes and the assays were performed at room temperature.
(§4) The measurements of the sodium currents of Nav 1.8 and Nav 1.7 were obtained using the voltage protocols described below: • Protocol 1: A holding voltage of-90 mV was established followed by a voltage phase of 200 ms to-120 mV, followed by a voltage step of 10 mV for 1 second for Nav 1.8 or 0 mV for Nav 1.7, followed by a step of-100 mV for 20 ms, followed by a step of 20 ms for 10 mV for Nav 1.8 or 0 mV for Nav 1.7 (TP1A) before returning to the holding voltage of-90 mV. • Protocol 2: A holding voltage of-100 mV was established followed by an inactivation voltage step at −40 mV for 8 seconds, followed by a −100 mV step for 20 ms, followed by a 20 ms step for 10 mV for Nav 1.8 or 0 mV for Nav 1.7 (TP1A) before returning to the holding voltage of-100 mV.
(§5) Protocols were repeated at a frequency of 0.1 Hz (Protocol 1) or 0.05 Hz (Protocol 2) and current amplitude was quantified over the TP1A phase log. The variation in the peak amplitude of the current was evaluated according to the Formula described below, after exposure of the cells expressing the channels, at each concentration of the different compounds:
(§6) where ITP1A,basal, and ITP1A,molecule represent the entry peaks of sodium currents into TP1A prior to exposure to the compound and in the presence of the compound, respectively.
(§7) The decrease in peak current amplitude, after exposure of the cells to the compounds, was used to calculate the percent relative blocking of the channels relative to the positive control according to the Formula below: […]
(§8) where % V and % CP represent the averages of the values of current inhibition with a vehicle (DMSO) and positive controls, respectively. The sodium currents of the positive control were considered as 100%.
(§9) where [Test] represents the concentration of the evaluated molecule, IC50 is the concentration of the compound that generates half of the maximum inhibition, N is the Hill's coefficient and % Block′ is the percentage of the sodium channel current (Nav 1.8 and Nav 1.7) inhibited at each concentration of the evaluated molecule. Data were obtained by non linear least squares regression with XL fit for Excel (Microsoft, Redmond, WA).
(§10) Compounds were tested in at least one assay to obtain the IC50 value.

The target of assay [2] is human sodium channel Nav 1.8 (Homo sapiens (Human), UniProt Q9Y5Y9). Briefly: Automated whole-cell voltage-clamp (ScreenPatch 384P), Nav 1.8 sodium current, Protocol 2. In kind it is cell-based. Particulars: read-out: Nav1.8 IC50. On the procedure: as §1, §2, §3, §4, §5, §6, §7, §8, §9, §10
Sequence of human sodium channel Nav 1.8 (Q9Y5Y9 whole entry): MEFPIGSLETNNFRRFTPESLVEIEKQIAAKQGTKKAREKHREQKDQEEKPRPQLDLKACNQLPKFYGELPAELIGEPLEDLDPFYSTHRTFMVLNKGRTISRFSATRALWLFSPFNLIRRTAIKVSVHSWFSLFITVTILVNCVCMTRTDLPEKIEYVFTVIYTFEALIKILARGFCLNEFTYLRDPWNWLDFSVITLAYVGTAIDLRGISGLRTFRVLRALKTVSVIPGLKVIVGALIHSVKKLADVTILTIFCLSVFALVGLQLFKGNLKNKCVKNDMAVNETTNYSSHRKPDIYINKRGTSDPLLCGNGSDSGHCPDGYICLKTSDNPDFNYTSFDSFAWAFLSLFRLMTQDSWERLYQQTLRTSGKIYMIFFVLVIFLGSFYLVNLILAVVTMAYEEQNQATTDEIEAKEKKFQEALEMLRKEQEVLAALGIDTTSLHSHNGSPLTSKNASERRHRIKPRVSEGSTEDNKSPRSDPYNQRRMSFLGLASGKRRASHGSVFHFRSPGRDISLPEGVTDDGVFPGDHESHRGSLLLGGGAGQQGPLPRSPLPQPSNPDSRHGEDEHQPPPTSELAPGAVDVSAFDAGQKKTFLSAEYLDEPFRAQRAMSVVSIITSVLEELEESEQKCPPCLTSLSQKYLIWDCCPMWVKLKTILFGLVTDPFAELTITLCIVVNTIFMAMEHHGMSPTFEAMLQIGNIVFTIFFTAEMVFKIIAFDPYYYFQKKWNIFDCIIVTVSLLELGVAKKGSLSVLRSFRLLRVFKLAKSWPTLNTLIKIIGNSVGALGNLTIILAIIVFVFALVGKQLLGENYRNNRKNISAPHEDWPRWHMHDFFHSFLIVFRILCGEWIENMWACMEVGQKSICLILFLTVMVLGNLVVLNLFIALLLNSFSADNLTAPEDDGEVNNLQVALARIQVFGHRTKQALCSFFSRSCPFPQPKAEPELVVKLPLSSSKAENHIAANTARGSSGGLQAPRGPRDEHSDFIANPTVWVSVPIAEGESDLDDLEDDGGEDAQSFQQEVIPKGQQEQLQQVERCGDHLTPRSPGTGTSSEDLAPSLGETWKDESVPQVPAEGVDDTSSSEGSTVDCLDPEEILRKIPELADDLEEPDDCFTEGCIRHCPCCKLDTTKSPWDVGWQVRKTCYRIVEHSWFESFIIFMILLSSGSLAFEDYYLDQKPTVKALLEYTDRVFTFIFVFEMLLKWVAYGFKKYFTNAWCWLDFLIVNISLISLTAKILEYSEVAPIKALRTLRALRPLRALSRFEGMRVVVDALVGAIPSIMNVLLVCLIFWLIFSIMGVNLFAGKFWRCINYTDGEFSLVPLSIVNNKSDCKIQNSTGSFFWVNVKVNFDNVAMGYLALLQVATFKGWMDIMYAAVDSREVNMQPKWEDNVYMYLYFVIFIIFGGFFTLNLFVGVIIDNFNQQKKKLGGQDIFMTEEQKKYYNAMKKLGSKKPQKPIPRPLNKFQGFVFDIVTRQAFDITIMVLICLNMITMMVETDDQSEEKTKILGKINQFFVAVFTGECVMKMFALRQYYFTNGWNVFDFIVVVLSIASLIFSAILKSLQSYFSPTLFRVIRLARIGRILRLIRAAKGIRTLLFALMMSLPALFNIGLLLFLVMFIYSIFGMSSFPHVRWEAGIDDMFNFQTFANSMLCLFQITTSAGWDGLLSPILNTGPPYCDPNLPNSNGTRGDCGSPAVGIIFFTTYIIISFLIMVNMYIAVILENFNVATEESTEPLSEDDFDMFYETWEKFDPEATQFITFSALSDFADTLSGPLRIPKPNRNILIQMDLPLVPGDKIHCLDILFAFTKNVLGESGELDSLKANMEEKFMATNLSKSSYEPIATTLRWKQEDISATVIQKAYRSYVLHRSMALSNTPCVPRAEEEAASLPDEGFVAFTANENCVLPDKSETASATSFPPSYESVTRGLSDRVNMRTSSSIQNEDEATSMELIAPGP

Sequence of human sodium channel Nav 1.7 (Q15858 whole entry): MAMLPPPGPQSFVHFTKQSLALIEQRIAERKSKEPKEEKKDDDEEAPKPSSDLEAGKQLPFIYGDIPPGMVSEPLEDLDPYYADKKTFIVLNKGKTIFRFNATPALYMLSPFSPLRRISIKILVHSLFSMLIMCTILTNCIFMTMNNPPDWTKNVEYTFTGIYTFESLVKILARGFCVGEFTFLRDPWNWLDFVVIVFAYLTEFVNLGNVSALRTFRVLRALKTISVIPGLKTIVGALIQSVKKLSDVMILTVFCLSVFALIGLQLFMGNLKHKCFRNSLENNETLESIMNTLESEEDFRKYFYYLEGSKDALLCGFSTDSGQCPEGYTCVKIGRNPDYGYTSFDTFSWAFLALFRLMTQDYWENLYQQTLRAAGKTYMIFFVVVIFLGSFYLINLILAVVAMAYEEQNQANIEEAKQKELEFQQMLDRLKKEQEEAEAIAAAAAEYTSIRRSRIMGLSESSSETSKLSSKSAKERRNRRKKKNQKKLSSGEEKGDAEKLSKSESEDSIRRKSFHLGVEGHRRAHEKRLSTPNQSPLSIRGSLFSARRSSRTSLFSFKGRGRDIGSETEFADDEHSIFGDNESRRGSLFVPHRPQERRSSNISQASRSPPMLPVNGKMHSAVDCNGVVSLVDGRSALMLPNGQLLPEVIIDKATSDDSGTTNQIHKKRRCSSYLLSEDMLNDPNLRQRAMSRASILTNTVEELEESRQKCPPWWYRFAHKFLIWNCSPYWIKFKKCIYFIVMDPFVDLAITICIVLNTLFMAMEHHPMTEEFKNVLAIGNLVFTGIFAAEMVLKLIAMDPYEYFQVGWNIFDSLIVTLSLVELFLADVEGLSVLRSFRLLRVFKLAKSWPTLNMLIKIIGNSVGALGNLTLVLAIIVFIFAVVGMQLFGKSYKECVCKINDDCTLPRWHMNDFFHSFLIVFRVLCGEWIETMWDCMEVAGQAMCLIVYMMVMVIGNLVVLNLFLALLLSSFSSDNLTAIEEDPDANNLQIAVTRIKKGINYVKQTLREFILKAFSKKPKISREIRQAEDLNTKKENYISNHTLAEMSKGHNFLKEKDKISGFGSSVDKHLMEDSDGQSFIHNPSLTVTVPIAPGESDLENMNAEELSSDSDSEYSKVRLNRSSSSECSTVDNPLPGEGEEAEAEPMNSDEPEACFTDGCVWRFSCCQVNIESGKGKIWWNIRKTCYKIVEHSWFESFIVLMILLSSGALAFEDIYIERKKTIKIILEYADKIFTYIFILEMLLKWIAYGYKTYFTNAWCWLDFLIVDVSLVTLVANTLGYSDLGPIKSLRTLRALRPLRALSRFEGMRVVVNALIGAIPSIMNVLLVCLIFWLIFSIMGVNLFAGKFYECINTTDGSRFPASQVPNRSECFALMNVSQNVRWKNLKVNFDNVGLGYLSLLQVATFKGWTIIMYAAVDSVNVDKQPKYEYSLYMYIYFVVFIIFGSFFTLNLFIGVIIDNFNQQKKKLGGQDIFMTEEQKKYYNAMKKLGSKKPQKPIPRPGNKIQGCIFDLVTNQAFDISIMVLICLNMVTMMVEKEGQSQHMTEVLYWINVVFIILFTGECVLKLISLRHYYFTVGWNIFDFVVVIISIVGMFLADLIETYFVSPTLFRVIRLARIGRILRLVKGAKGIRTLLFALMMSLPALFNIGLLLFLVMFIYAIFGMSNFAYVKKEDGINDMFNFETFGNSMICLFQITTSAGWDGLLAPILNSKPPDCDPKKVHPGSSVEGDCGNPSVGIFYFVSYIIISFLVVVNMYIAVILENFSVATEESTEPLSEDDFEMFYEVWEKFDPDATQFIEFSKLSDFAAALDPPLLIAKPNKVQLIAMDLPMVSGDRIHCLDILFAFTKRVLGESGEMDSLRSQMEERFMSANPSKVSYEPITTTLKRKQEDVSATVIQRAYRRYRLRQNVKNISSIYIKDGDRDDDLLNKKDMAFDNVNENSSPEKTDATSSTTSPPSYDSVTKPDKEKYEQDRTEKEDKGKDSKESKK

By IC50 is commonly meant the point on the concentration scale where inhibition reaches its midpoint. With `COc1cc(/C=N/NC(=O)c2cncc(-c3ccncc3)n2)cc(OC)c1` [Compound 103, (E)-N′-(3,5-dimethoxybenzylidene)-6-(pyridin-4-yl)pyrazine-2-carbohydrazide], the IC50 in assay [1] was more than 10000 nM; in assay [2], more than 1000 nM.
The like results for `CCOc1ccc(-c2cncc(C(=O)N/N=C/c3cc(F)cc(OC)c3)n2)c(OC)c1` [Compound 105, (E)-6-(4-ethoxy-2-methoxypehnyl)-N′-(3-fluoro-5-methoxybenzylidene)pyrazine-2-carbohydrazide] were, in that order, 44.6 nM and 33.7 nM.
For `CCOc1ccc(-c2cncc(C(=O)N/N=C/c3cc(OC)cc(OC)c3)n2)cc1` [Compound 2, (E)-N′-(3,5-dimethoxybenzylidene)-6-(4-ethoxyphenyl)pyrazine-2-carbohydrazide], in that order: 239 nM and 32.5 nM.
`COc1ccc(-c2cncc(C(=O)N/N=C/c3ccccc3C(F)(F)F)n2)cc1` [Compound 49, (E)-6-(4-methoxyphenyl)-N′-(2-(trifluoromethyl)benzylidene)pyrazine-2-carbohydrazide]: the IC50 came to 1310 nM in assay [1] and 158 nM in assay [2].
The like results for `COc1cc(/C=N/NC(=O)c2cncc(-c3ccc(OCC(C)C)cc3)n2)cc(OC)c1` [Compound 85, (E)-N′-(3,5-dimethoxybenzylidene)-6-(4-isobutoxyphenyl)pyrazine-2-carbohydrazide] were, in that order, 159 nM and 31.8 nM.
As to `COc1cc(/C=N/NC(=O)c2cncc(C(C)C)n2)cc(OC)c1` [Compound 134, (E)-N′-(3,5-dimethoxybenzylidene)-6-isopropylpyrazine-2-carbohydrazide], the IC50 was more than 10000 nM in assay [1] and more than 1000 nM in assay [2].
For `COc1ccc(-c2cncc(C(=O)N/N=C/c3cccc(OC)c3)n2)cc1` [Compound 37, (E)-N′-(3-methoxybenzylidene)-6-(4-methoxyphenyl)pyrazine-2-carbohydrazide], in that order: 1570 nM and 115 nM.
For `COc1cc(/C=N/NC(=O)c2cncc(-c3ccc(Cl)cc3)n2)cc(OC)c1` [Compound 1, 6-(4-chlorophenyl)-N′-[(E)-(3,5-dimethoxyphenyl)methylidene]pyrazine-2-carbohydrazide], in that order: more than 1000 nM and more than 1000 nM.
`CC(C)Oc1ccc(-c2cncc(C(=O)N/N=C/C3CCCCCC3)n2)cc1` [Compound 183, (E)-N′-(cycloheptylmethylene)-6-(4-isopropoxyphenyl)pyrazine-2-carbohyazide]: the IC50 was 256 nM in assay [1] and 231 nM in assay [2].
For the compound `CCOc1ccc(-c2cncc(C(=O)N/N=C/c3cc(CCO)cc(OC)c3)n2)cc1` [Compound 214], the IC50 was more than 10000 nM in assay [1] and more than 1000 nM in assay [2].
For `COc1ccc(-c2cncc(C(=O)N/N=C/c3c(OC)cccc3OC)n2)cc1` [Compound 79, (E)-N′-(2,6-dimethoxybenzylidene)-6-(4-methoxyphenyl)pyrazine-2-carbohydrazide], in that order: more than 10000 nM and more than 1000 nM.
The like results for `CCOc1ccc(-c2cncc(C(=O)N/N=C/c3ccccc3S(C)(=O)=O)n2)cc1` [Compound 192] were, in that order, 7220 nM and 952 nM.
As to `CCCOc1cc(/C=N/NC(=O)c2cncc(-c3ccc(OCC)cc3)n2)cc(OC)c1` [Compound 16, (E)-6-(4-ethoxyphenyl)-N′-(3-methoxy-5-propoxybenzylidene)pyrazine-2-carbohydrazide], the IC50 was 224 nM in assay [1] and 93.3 nM in assay [2].
`COc1ccc(-c2cncc(C(=O)N/N=C/c3cccc(Br)c3)n2)cc1` [Compound 55, (E)-N′-(3-bromobenzylidene)-6-(4-methoxyphenyl)pyrazine-2-carbohydraizde]: the IC50 in assay [1] is 2190 nM; in assay [2] it was 476 nM.
The like results for `COc1cc(/C=N/NC(=O)c2cncc(N3CCCCC3)n2)cc(OC)c1` [Compound 127, (E)-N′-(3,5-dimethoxybenzylidene)-6-(piperidin-1-yl)pyrazine-2-carbohydrazide] were, in that order, more than 10000 nM and more than 1000 nM.
For `CCOc1ccc(-c2cncc(C(=O)N/N=C/c3ccccc3CS(C)(=O)=O)n2)cc1` [Compound 191, (E)-6-(4-ethoxyphenyl)-N′-(2-((methylsulfonyl)methyl)benzylidene)pyrazine-2-carbohydrazide], in that order: 3200 nM and more than 1000 nM.
The like results for `CCSc1ccc(-c2cncc(C(=O)N/N=C/c3cc(OC)cc(OC)c3)n2)cc1` [Compound 118, (E)-N′-(3,5-dimethoxybenzylidene)-6-(4-(ethylthio)phenyl)pyrazine-2-carbohydrazide] were, in that order, 416 nM and 79.9 nM.
In the case of `CCCCOc1ccc(-c2cncc(C(=O)N/N=C/c3cc(OC)cc(OC)c3)n2)cc1` [Compound 83], the IC50 in assay [1] was found to be 135 nM; in assay [2], 103 nM.
The like results for `CCOc1ccc(-c2cncc(C(=O)N/N=C/c3cc(OC)cc(OC)c3)n2)c(C(F)(F)F)c1` [Compound 187] were, in that order, 219 nM and 496 nM.
For `CCOc1ccc(-c2nc(C(=O)N/N=C/c3cc(OC)cc(OC)c3)cnc2Cl)cc1` [Compound 209, (E)-5-chloro-N′-(3,5-dimethoxybenzylidene)-6-(4-ethoxyphenyl)pyrazine-2-carbohydrazide], in that order: 2470 nM and 189 nM.
With `COc1cc(/C=N/NC(=O)c2cncc(-c3ccc(OCSC)cc3)n2)cc(OC)c1` [Compound 149, (E)-N′-(3,5-dimethoxybenzylidene)-6-(4-((methylthio)methoxy)phenyl)pyrazine-2-carbohydrazide], the IC50 in assay [1] came to 123 nM; in assay [2], 60.9 nM.
For `COc1cc(/C=N/NC(=O)c2cnc(Cl)cn2)cc(OC)c1` [Compound 164, (E)-5-chloro-N′-(3,5-dimethoxybenzylidene)pyrazine-2-carbohydrazide], in that order: more than 10000 nM and more than 1000 nM.
The like results for `COc1cc(/C=N/NC(=O)c2cncc(-c3ccc(OC4CCCC4)cc3Cl)n2)cc(OC)c1` [Compound 157, (E)-6-(2-chloro-4-(cyclopentyloxy)phenyl)-N′-(3,5-dimethoxybenzylidene)pyrazine-2-carbohydrazide] were, in that order, 180 nM and 456 nM.
For `COc1cc(/C=N/NC(=O)c2cncc(-c3ccc(C(F)F)cc3)n2)cc(OC)c1` [Compound 177, (E)-6-(4-(difluoromethyl)phenyl)-N′-(3,5-dimethoxybenzylidene)pyrazine-2-carbohydrazide], in that order: more than 1000 nM and 963 nM.
`CCc1cncc(C(=O)N/N=C/c2cc(OC)cc(OC)c2)n1` [Compound 133, (E)-N′-(3,5-dimethoxybenzylidene)-6-ethylpyrazine-2-carbohydrazide]: the IC50 in assay [1] is more than 10000 nM; in assay [2], 913 nM.
For `COc1cc(/C=N/NC(=O)c2cncc(-c3ccc(OCCN(C)C)cc3)n2)cc(OC)c1` [Compound 151, (E)-N′-(3,5-dimethoxybenzylidene)-6-(4-(2-(dimethylamino)ethoxy)phenyl)pyrazine-2-carbohydrazide], in that order: more than 10000 nM and more than 1000 nM.
For `CCOc1cc(C)c(-c2cncc(C(=O)N/N=C/c3cccc(OC)c3)n2)c(C)c1` [Compound 213, (E)-6-(4-ethoxy-2,6-diemthylphenyl)-N′-(3-methoxybenzylidene)pyrazine-2-carbohydrazide], in that order: more than 10000 nM and more than 1000 nM.
The like results for `CCCCOc1ccc(-c2cncc(C(=O)N/N=C/c3cc(OC)cc(OC)c3)n2)c(Cl)c1` [Compound 158, (E)-6-(4-butoxy-2-chlorophenyl)-N′-(3,5-dimethoxybenzylidene)pyrazine-2-carbohydrazide] were, in that order, 245 nM and 282 nM.

The values are drawn from US20240335442A1 (Eurofarma Laboratórios S.A., priority 2021, published 2024).
